# Source: patent publication US20230257396A1, “MACROCYCLES AND THEIR USE” (BLOSSOMHILL THERAPEUTICS, INC., priority 2020, published 2023)
# Tests used:
# Test in all cases: KINOMEscan kinase binding assay (Eurofins/DiscoveRx), % Ctrl
# Conditions in all cases: 1 μM
# kinases [1] = target: T1, kinases (Homo sapiens, UniProt P00533, L858R/T790M)
# T1 construct: purchased Eurofins/DiscoveRx; host or cells: E. coli BL21-derived host (T7 phage display) for most kinases; HEK-293 for the rest
# How it was run: (§1)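 Competition binding, 1 h RT: phage-tagged or HEK-293-expressed DNA-tagged kinase + immobilized ligand + compound. Eluate kinase by qPCR. % Ctrl = (test − positive ctrl)/(negative ctrl − positive ctrl) × 100; lower means stronger binding.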
# kinases [2] = target: T2, kinases (Homo sapiens, UniProt P00533, L858R)
# T2 construct: purchased Eurofins/DiscoveRx; host or cells: E. coli BL21-derived host (T7 phage display) for most kinases; HEK-293 for the rest
# How it was run: as §1
# kinases [3] = target: T3, kinases (Homo sapiens, UniProt P10721, V559D/V654A)
# T3 construct: purchased Eurofins/DiscoveRx; host or cells: E. coli BL21-derived host (T7 phage display) for most kinases; HEK-293 for the rest
# T3 sequence (P10721 26-976 V559D/V654A): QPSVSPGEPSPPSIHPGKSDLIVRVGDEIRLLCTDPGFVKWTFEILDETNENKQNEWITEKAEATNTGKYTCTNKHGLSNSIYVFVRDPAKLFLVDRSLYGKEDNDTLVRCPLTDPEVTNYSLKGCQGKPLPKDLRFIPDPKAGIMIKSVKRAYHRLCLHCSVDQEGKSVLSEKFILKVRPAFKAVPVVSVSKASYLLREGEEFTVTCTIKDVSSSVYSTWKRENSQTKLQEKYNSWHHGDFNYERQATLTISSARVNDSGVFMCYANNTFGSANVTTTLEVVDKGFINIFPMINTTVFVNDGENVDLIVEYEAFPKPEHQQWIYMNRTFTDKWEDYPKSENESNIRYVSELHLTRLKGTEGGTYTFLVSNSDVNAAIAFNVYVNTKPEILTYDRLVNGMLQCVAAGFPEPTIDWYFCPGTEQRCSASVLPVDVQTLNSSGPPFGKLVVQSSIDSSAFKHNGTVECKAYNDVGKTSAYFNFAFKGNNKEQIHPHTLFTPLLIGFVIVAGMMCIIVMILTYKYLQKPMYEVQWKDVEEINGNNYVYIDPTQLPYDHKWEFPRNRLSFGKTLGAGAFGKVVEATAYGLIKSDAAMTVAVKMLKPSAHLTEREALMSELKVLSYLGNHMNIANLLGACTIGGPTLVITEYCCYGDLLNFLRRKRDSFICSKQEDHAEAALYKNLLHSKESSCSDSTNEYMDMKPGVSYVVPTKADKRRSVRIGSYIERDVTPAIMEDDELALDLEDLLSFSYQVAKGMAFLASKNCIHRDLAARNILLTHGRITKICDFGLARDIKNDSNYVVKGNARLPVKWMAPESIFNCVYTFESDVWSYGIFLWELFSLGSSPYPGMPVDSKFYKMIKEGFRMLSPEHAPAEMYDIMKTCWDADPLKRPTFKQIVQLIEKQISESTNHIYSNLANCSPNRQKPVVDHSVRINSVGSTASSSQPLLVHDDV
# How it was run: as §1
# kinases [4] = target: T4, kinases (Homo sapiens, UniProt P10721, L576P)
# T4 construct: purchased Eurofins/DiscoveRx; host or cells: E. coli BL21-derived host (T7 phage display) for most kinases; HEK-293 for the rest
# T4 sequence (P10721 26-976 L576P): as the sequence (P10721 26-976 V559D/V654A) above, with D534V, L551P, A629V counted along it
# How it was run: as §1
# kinases [5] = target: T5, kinases (Homo sapiens, UniProt P36888)
# T5 construct: purchased Eurofins/DiscoveRx; host or cells: E. coli BL21-derived host (T7 phage display) for most kinases; HEK-293 for the rest
# T5 sequence (P36888 27-993): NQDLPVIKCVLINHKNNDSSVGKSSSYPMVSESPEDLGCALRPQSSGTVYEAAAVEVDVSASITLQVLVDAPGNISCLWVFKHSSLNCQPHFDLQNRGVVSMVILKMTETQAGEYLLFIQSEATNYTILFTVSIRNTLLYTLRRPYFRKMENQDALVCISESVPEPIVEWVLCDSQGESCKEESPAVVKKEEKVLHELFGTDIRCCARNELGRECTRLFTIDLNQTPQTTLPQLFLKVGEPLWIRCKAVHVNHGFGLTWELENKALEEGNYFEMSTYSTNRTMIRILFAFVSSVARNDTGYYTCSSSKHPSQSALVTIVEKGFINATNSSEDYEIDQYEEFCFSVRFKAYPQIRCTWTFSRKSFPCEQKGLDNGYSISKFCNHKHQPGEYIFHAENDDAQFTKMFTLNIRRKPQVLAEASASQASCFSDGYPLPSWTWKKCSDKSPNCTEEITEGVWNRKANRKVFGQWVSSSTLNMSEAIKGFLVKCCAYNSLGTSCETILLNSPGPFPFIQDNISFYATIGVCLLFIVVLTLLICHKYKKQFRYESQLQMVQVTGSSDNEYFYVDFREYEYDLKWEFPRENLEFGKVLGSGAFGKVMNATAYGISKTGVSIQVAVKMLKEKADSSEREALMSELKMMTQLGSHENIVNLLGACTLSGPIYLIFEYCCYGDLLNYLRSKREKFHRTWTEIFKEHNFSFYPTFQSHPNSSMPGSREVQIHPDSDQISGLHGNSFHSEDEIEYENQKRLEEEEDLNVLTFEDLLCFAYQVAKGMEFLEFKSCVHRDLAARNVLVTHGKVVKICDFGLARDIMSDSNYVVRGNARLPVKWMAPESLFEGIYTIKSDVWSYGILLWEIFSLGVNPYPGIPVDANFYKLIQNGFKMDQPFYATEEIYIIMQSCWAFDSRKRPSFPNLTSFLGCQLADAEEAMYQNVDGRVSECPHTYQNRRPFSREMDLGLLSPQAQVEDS
# How it was run: as §1
# kinases [6] = target: T6, kinases (Homo sapiens, UniProt P00519, Y253F)
# T6 construct: purchased Eurofins/DiscoveRx; host or cells: E. coli BL21-derived host (T7 phage display) for most kinases; HEK-293 for the rest
# How it was run: as §1
# kinases [7] = target: T7, kinases (Homo sapiens, UniProt P00519)
# T7 construct: purchased Eurofins/DiscoveRx; host or cells: E. coli BL21-derived host (T7 phage display) for most kinases; HEK-293 for the rest
# How it was run: as §1
# kinases [8] = target: T8, kinases (Homo sapiens, UniProt P35916)
# T8 construct: purchased Eurofins/DiscoveRx; host or cells: E. coli BL21-derived host (T7 phage display) for most kinases; HEK-293 for the rest
# T8 sequence (P35916 25-1363): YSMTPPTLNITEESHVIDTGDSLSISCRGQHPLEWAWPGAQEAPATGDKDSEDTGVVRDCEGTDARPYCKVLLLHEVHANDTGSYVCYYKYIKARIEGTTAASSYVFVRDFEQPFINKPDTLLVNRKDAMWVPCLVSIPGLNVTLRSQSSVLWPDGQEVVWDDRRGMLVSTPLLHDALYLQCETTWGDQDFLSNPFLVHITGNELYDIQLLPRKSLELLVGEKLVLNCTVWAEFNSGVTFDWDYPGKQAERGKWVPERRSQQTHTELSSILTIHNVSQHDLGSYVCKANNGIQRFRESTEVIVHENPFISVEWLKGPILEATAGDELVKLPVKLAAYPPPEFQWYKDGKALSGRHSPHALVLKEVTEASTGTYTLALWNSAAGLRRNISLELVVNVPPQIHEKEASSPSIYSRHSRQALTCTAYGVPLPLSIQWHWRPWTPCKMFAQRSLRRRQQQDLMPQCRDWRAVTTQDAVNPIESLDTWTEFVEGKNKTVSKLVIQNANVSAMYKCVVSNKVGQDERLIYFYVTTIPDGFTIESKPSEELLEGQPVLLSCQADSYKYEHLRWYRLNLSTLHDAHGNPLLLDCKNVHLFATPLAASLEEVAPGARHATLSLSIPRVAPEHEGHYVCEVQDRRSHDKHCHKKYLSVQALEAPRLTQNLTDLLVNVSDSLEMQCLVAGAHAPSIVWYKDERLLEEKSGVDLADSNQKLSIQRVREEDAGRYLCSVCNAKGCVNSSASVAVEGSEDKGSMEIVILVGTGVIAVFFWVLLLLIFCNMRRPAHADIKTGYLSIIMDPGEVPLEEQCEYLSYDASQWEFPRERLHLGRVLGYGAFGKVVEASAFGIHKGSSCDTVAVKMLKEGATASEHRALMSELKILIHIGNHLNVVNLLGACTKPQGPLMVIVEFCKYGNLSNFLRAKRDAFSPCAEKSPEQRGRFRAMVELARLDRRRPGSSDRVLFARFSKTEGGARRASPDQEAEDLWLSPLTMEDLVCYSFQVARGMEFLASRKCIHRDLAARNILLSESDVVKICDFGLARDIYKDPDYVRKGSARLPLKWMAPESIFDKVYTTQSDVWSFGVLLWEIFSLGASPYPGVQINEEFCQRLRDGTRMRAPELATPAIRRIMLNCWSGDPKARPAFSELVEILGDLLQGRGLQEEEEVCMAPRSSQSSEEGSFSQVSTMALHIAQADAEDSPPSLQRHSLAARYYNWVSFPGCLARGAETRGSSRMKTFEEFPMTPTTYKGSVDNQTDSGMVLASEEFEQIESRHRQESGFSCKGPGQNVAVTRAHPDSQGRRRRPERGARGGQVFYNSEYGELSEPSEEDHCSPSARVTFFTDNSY
# How it was run: as §1
# kinases [9] = target: T9, kinases (Homo sapiens, UniProt P00519, H396P)
# T9 construct: purchased Eurofins/DiscoveRx; host or cells: E. coli BL21-derived host (T7 phage display) for most kinases; HEK-293 for the rest
# How it was run: as §1
# kinases [10] = target: T10, kinases (Homo sapiens, UniProt P07949, V804L)
# T10 construct: purchased Eurofins/DiscoveRx; host or cells: E. coli BL21-derived host (T7 phage display) for most kinases; HEK-293 for the rest
# T10 sequence (P07949 29-1114 V804L): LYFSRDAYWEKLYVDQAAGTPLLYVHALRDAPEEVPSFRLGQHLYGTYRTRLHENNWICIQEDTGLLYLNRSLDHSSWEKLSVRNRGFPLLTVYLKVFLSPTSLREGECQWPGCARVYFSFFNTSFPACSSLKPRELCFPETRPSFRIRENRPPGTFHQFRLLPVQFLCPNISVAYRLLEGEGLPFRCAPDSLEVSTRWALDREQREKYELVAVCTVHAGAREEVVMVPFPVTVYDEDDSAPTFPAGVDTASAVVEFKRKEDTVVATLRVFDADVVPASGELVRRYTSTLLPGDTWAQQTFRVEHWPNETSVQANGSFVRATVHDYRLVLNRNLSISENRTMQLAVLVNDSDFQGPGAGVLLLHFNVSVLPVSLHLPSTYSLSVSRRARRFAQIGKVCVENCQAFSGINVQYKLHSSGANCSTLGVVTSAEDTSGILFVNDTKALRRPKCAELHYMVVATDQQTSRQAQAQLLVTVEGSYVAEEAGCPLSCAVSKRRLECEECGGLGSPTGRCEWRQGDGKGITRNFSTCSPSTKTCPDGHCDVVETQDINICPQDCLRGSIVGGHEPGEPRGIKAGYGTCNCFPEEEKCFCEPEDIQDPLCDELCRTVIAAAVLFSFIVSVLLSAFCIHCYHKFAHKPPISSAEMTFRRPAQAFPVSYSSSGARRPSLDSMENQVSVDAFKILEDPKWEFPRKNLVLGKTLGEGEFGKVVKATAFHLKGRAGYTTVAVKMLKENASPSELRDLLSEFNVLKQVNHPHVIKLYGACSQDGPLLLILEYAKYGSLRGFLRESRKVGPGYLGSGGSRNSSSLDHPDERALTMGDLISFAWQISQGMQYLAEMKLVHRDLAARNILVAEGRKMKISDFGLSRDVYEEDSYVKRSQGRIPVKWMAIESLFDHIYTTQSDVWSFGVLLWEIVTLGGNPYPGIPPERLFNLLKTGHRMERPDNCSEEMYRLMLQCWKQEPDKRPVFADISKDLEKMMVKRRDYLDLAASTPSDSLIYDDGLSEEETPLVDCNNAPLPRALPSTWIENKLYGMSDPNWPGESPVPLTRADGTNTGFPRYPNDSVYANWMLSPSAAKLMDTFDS
# How it was run: as §1
# kinases [11] = target: T11, kinases (Homo sapiens, UniProt P00533, L861Q)
# T11 construct: purchased Eurofins/DiscoveRx; host or cells: E. coli BL21-derived host (T7 phage display) for most kinases; HEK-293 for the rest
# How it was run: as §1
# kinases [12] = target: T12, kinases (Homo sapiens, UniProt P09619)
# T12 construct: purchased Eurofins/DiscoveRx; host or cells: E. coli BL21-derived host (T7 phage display) for most kinases; HEK-293 for the rest
# T12 sequence (P09619 33-1106): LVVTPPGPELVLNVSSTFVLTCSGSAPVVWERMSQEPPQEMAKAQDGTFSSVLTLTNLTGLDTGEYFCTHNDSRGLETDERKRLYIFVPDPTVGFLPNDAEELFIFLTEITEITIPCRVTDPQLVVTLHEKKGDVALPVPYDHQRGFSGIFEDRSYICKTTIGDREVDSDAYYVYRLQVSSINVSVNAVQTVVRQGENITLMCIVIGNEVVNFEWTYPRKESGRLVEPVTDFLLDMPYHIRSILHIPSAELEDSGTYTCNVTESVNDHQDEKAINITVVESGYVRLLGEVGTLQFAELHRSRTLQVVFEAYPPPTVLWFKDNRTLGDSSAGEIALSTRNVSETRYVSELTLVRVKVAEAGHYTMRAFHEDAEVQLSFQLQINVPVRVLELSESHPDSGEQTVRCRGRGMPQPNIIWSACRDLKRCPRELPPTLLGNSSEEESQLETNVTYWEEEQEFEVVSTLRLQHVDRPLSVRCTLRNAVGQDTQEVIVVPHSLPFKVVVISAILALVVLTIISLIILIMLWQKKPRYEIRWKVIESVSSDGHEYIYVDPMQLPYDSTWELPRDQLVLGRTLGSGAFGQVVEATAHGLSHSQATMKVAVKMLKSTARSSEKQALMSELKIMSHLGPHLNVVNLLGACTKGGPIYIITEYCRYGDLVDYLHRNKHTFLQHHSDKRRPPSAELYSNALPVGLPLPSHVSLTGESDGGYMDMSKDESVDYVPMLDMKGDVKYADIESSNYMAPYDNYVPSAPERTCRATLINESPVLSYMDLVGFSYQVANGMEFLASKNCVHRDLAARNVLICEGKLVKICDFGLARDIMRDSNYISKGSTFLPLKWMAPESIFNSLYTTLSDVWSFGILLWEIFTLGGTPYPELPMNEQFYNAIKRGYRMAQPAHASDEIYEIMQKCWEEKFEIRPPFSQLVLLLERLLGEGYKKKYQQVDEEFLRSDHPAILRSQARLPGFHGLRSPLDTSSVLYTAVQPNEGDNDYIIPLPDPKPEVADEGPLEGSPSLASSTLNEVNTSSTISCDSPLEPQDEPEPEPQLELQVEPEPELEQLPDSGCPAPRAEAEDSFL
# How it was run: as §1
# kinases [13] = target: T13, kinases (Homo sapiens, UniProt P00533)
# T13 construct: purchased Eurofins/DiscoveRx; host or cells: E. coli BL21-derived host (T7 phage display) for most kinases; HEK-293 for the rest
# How it was run: as §1
# kinases [14] = target: T14, kinases (Homo sapiens, UniProt P00519, F317I)
# T14 construct: purchased Eurofins/DiscoveRx; host or cells: E. coli BL21-derived host (T7 phage display) for most kinases; HEK-293 for the rest
# How it was run: as §1
# kinases [15] = target: T15, kinases (Homo sapiens, UniProt P07949, M918T)
# T15 construct: purchased Eurofins/DiscoveRx; host or cells: E. coli BL21-derived host (T7 phage display) for most kinases; HEK-293 for the rest
# T15 sequence (P07949 29-1114 M918T): as the sequence (P07949 29-1114 V804L) above, with L776V, M890T counted along it
# How it was run: as §1
"% Ctrl, EGFR(L858R, T790M) (kinases [1]; EGFR(L858R, T790M))","% Ctrl, EGFR(L858R) (kinases [2]; EGFR(L858R))","% Ctrl, KIT(V559D, V654A) (kinases [3]; KIT(V559D, V654A))","% Ctrl, KIT(L576P) (kinases [4]; KIT(L576P))","% Ctrl, FLT3 (kinases [5]; FLT3)","% Ctrl, FLT3-autoinhibited (kinases [5]; FLT3-autoinhibited)","% Ctrl, ABL1(Y253F)-phosphorylated (kinases [6]; ABL1(Y253F)-phosphorylated)","% Ctrl, ABL1-nonphosphorylated (kinases [7]; ABL1-nonphosphorylated)","% Ctrl, ABL1-phosphorylated (kinases [7]; ABL1-phosphorylated)","% Ctrl, FLT4 (kinases [8]; FLT4)","% Ctrl, ABL1(H396P)-nonphosphorylated (kinases [9]; ABL1(H396P)-nonphosphorylated)","% Ctrl, ABL1(H396P)-phosphorylated (kinases [9]; ABL1(H396P)-phosphorylated)","% Ctrl, RET(V804L) (kinases [10]; RET(V804L))","% Ctrl, EGFR(L861Q) (kinases [11]; EGFR(L861Q))","% Ctrl, PDGFRB (kinases [12]; PDGFRB)","% Ctrl, EGFR (kinases [13]; EGFR)","% Ctrl, ABL1(F317I)-nonphosphorylated (kinases [14]; ABL1(F317I)-nonphosphorylated)","% Ctrl, ABL1(F317I)-phosphorylated (kinases [14]; ABL1(F317I)-phosphorylated)","% Ctrl, RET(M918T) (kinases [15]; RET(M918T))",SMILES,also measured
–,–,–,–,–,–,–,–,–,–,–,–,–,–,–,–,–,–,–,"CN1CCOCCOc2cc3c(cc2Cl)NC(=O)/C3=C\c2[nH]ccc2C1=O [Ex. 143, [16a(17)Z]-19-chloro-2,5-dimethyl-6,7,9,10-tetrahydro-1H-12,14-(ethanediylidene)dipyrrolo[3,2-i:3′,4′-l][1,4,7]oxathiazacyclopentadecine-4,16(5H,15H)-dione]","% Ctrl, EGFR(L858R, T790M) (kinases [1]; target EGFR(L858R, T790M)): 75 % Ctrl; % Ctrl, EGFR(L858R) (kinases [2]; target EGFR(L858R)): 86 % Ctrl; % Ctrl, KIT(V559D, V654A) (kinases [3]; target KIT(V559D, V654A)): 33 % Ctrl; % Ctrl, KIT(L576P) (kinases [4]; target KIT(L576P)): 0 % Ctrl; % Ctrl, FLT3-autoinhibited (kinases [5]; target FLT3-autoinhibited): 62 % Ctrl; % Ctrl, FLT3 (kinases [5]; target FLT3): 15 % Ctrl; % Ctrl, ABL1(Y253F)-phosphorylated (kinases [6]; target ABL1(Y253F)-phosphorylated): 9.1 % Ctrl; % Ctrl, ABL1-nonphosphorylated (kinases [7]; target ABL1-nonphosphorylated): 6 % Ctrl; % Ctrl, ABL1-phosphorylated (kinases [7]; target ABL1-phosphorylated): 11 % Ctrl; % Ctrl, FLT4 (kinases [8]; target FLT4): 39 % Ctrl; % Ctrl, ABL1(H396P)-nonphosphorylated (kinases [9]; target ABL1(H396P)-nonphosphorylated): 1.6 % Ctrl; % Ctrl, ABL1(H396P)-phosphorylated (kinases [9]; target ABL1(H396P)-phosphorylated): 11 % Ctrl; % Ctrl, RET(V804L) (kinases [10]; target RET(V804L)): 3.5 % Ctrl; % Ctrl, EGFR(L861Q) (kinases [11]; target EGFR(L861Q)): 100 % Ctrl; % Ctrl, PDGFRB (kinases [12]; target PDGFRB): 32 % Ctrl; % Ctrl, EGFR (kinases [13]; target EGFR): 100 % Ctrl; % Ctrl, ABL1(F317I)-nonphosphorylated (kinases [14]; target ABL1(F317I)-nonphosphorylated): 46 % Ctrl; % Ctrl, ABL1(F317I)-phosphorylated (kinases [14]; target ABL1(F317I)-phosphorylated): 26 % Ctrl; % Ctrl, RET(M918T) (kinases [15]; target RET(M918T)): 0.7 % Ctrl"
92 % Ctrl,94 % Ctrl,79 % Ctrl,97 % Ctrl,87 % Ctrl,100 % Ctrl,100 % Ctrl,83 % Ctrl,100 % Ctrl,94 % Ctrl,100 % Ctrl,100 % Ctrl,89 % Ctrl,100 % Ctrl,94 % Ctrl,98 % Ctrl,100 % Ctrl,100 % Ctrl,89 % Ctrl,"Cc1cc2c([nH]1)/C=C1\C(=O)Nc3cnc(cc31)-c1cnn(C)c1COCCNC2=O [Ex.123, [3a(4)Z]-6,14-dimethyl-10,11,13,14-tetrahydro-2H-17,1-(azenometheno)pyrazolo[4,3-m]dipyrrolo[3,2-f:3′,4′-i][1,4]oxazacyclopentadecine-3,8(5H,9H)-dione]",–
97 % Ctrl,67 % Ctrl,100 % Ctrl,84 % Ctrl,81 % Ctrl,100 % Ctrl,68 % Ctrl,71 % Ctrl,69 % Ctrl,92 % Ctrl,90 % Ctrl,77 % Ctrl,98 % Ctrl,87 % Ctrl,100 % Ctrl,64 % Ctrl,88 % Ctrl,100 % Ctrl,92 % Ctrl,"Cc1cc2c([nH]1)/C=C1\C(=O)Nc3ccc(nc31)-c1ccccc1OCCCNC2=O [Ex.22, [3a(4)Z]-6-methyl-9,10,11,12-tetrahydro-1,18-(ethanediylidene)dipyrrolo[3,2-g:3′,4′-j][1,5,12]benzoxadiazacyclopentadecine-3,8(2H,5H)-dione]",–
92 % Ctrl,89 % Ctrl,64 % Ctrl,5.1 % Ctrl,48 % Ctrl,95 % Ctrl,32 % Ctrl,46 % Ctrl,38 % Ctrl,90 % Ctrl,25 % Ctrl,35 % Ctrl,55 % Ctrl,95 % Ctrl,66 % Ctrl,96 % Ctrl,84 % Ctrl,70 % Ctrl,32 % Ctrl,"Cc1cc2c([nH]1)/C=C1\C(=O)Nc3cc(Cl)c(cc31)OCCO[C@@H](C(=O)NC1CCNCC1)CN(C)C2=O [Ex. 134, [7R,16a(17)Z]-19-chloro-2,5-dimethyl-4,16-dioxo-N-(piperidin-4-yl)-4,5,6,7,9,10,15,16-octahydro-1H-12,14-(ethaneidylidene)dipyrrolo[3,2-i:3′,4′-l][1,4,7]dioxazacyclopentadecine-7-carboxamide]",–
90 % Ctrl,64 % Ctrl,91 % Ctrl,100 % Ctrl,100 % Ctrl,85 % Ctrl,98 % Ctrl,73 % Ctrl,78 % Ctrl,98 % Ctrl,74 % Ctrl,82 % Ctrl,87 % Ctrl,68 % Ctrl,91 % Ctrl,77 % Ctrl,100 % Ctrl,64 % Ctrl,97 % Ctrl,"Cc1cc2c([nH]1)/C=C1\C(=O)Nc3ccc(cc31)-c1ccnn1CCOCCNC2=O [Ex.39, [19a(20)Z]-2-methyl-6,7,9,10-tetrahydro-1H-15,17-(ethanediylidene)pyrazolo[1,5-d]dipyrrolo[3,4-h:2′,3′-k][1,4,14]oxadiazacyclohexadecine-4,19(5H,18H)-dione]",–
